What all share (format): physicochemical
Data set [1] is described as follows: Humidity stability test (moisture and XRD). Conditions: for Moisture: open, humidity 43.1±0.5%, room temperature (20° C.); for Change of crystal form on water absorption: stored in open condition under humidity 43.1±0.5%, water content up to 3%, hydrochloride. As to the method: The S crystal form of ivabradine hydrochloride as prepared in Example 2 was spread on watch glass to form a thin layer and placed in the upper part of a desiccator, and saturated potassium carbonate solution was placed in the lower part of the desiccator, the humidity in the desiccator was detected (humidity: 43.1±0.5%), conditions were controlled at room temperature (20° C.) and constant humidity, and samples were taken at 1 h, 8 h, 16 h, 24 h, 48 h, 96 h for moisture and XRD tests, and the results are shown in the following table.

The nature of data set [2]: High-temperature stability test at 60° C. To be noted: for Content / Properties / Relevant substances: Max single impurity / Relevant substances: Total impurities: 60° C. The text has this: Thus, the product could be stored stably in storehouse at room temperature.
Data set [3] is described as follows: Storage of crystal form at room temperature (crystal form transformation). Conditions: 10 days storage at room temperature. From the text: Although many crystal forms have been reported in the documents, their stability and preparation methods are not satisfied. […] Delta crystal form contains acetonitrile which can hardly be removed, and it is difficult to distinguish from acetonitrile-containing crystal form. In addition, ivabradine hydrochloride as a hydrochloride is very easy to absorb moisture, while the change of water content may result in changes of many crystal forms, for example, the change between γd and γ, the change between βd and β.

Turning to `COc1cc2c(cc1OC)CC(=O)N(CCCN(C)C[C@H]1Cc3cc(OC)c(OC)cc31)CC2.Cl` [3-{3-[{[(7S)-3,4-dimethoxybicyclo[4.2.0]octa-1,3,5-trien-7-yl]-methyl}(methyl)-amino]propyl}-7,8-dimethoxy-1,3,4,5-tetrahydro-2H-3-benzazepin-2-one hydrochloride], the Moisture in data set [1] (1 h) is reported as 0.46%; in data set [1] (8 h) it was 0.55%; in data set [1] (16 h), 0.60%; in data set [1] (24 h) it was 0.82%; in data set [1] (48 h), 1.4%; in data set [1] (96 h) it was 3.0%. For the same compound, the “Change of crystal form on water absorption” value is “does not change” in data set [1] (listed as S crystal form) and “did not change” in data set [1] (listed as the product). Also, the Content in data set [2] (the 0th day) was 99.50%; in data set [2] (the 5th day) it was 99.40%; in data set [2] (the 10th day), 99.50%. Besides, the Properties result in data set [2] (the 0th day), in data set [2] (the 5th day) and in data set [2] (the 10th day) was “White” each time. Further, the “Relevant substances: Max single impurity” value in data set [2] (the 0th day) is 0.04%; in data set [2] (the 5th day), 0.05%; in data set [2] (the 10th day), 0.05%. Further, the “Relevant substances: Total impurities” value is 0.19% in data set [2] (the 0th day), 0.20% in data set [2] (the 5th day) and 0.20% in data set [2] (the 10th day). In data set [2] (stored at 60° C. for 10 days), the “Change of indicators, e.g. purity, versus the 0th day” value is reported as “did not change significantly”. In data set [2] (stored at 60° C. for 10 days), the “Stability of crystal form” value is “very stable”.

For the compound `COc1cc2c(cc1OC)CC(=O)N(CCCN(C)C[C@H]1Cc3cc(OC)c(OC)cc31)CC2.Cl` [δd crystal form, 3-{3-[{[(7S)-3,4-dimethoxybicyclo[4.2.0]octa-1,3,5-trien-7-yl]-methyl}(methyl)-amino]propyl}-7,8-dimethoxy-1,3,4,5-tetrahydro-2H-3-benzazepin-2-one hydrochloride], the “Crystal form transformation on storage” value in data set [3] is reported as “most of the δd crystal form will transform into α crystal form”.
